Measurements: ChEMBL document CHEMBL1201862, “PubChem BioAssay data set” (2004)
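All cell lines were grown in 96-well plates and treated with compound for 48 hours. Here, GI50 denotes the concentration required for 50% inhibition of growth.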 Active and inactive are the calls of the source. Rule as the data show it: active = GI50 up to about 1.1 µM and inactive = higher.

Assays:
Assay in all cases: NCI-60 cell line screen, 48 h
DLD-1 = tested on: DLD-1
HCC 2998 = tested on: HCC 2998
HOP-92 = tested on: HOP-92
HT-29 = tested on: HT-29
MOLT-4 = tested on: MOLT-4
Malme-3M = tested on: Malme-3M
NCI-H226 = tested on: NCI-H226
NCI-H23 = tested on: NCI-H23
NCI-H460 = tested on: NCI-H460
OVCAR-4 = tested on: OVCAR-4
OVCAR-8 = tested on: OVCAR-8
RPMI-8226 = tested on: RPMI-8226
RXF 393 = tested on: RXF 393
SK-MEL-5 = tested on: SK-MEL-5
SN12C = tested on: SN12C
UACC-257 = tested on: UACC-257
DU-145 = tested on: DU-145
Hs-578T = tested on: Hs-578T
T47D = tested on: T47D

Row | SMILES | GI50 (DLD-1) | GI50 (HCC 2998) | GI50 (HOP-92) | GI50 (HT-29) | GI50 (MOLT-4) | GI50 (Malme-3M) | GI50 (NCI-H226) | GI50 (NCI-H23) | GI50 (NCI-H460) | GI50 (OVCAR-4) | GI50 (OVCAR-8) | GI50 (RPMI-8226) | GI50 (RXF 393) | GI50 (SK-MEL-5) | GI50 (SN12C) | GI50 (UACC-257) | GI50 (DU-145) | GI50 (Hs-578T) | GI50 (T47D)
1 | Cc1ccc(S(=O)(=O)N(/N=C/C=C/c2ccccc2)c2nnc(-c3ccccc3)c(-c3ccccc3)n2)cc1 | 21.9 µM (inactive) | 13.3 µM (inactive) | 19 µM (inactive) | 0.619 µM (active) | 12.9 µM (inactive) | 30 µM (inactive) | 18.3 µM (inactive) | 15.8 µM (inactive) | 21.7 µM (inactive) | 9.82 µM (inactive) | 25.6 µM (inactive) | 11.3 µM (inactive) | 19 µM (inactive) | 14.9 µM (inactive) | 38.4 µM (inactive) | 13.3 µM (inactive) | – | – | –
2 | O=C(COC(=O)c1cccc2c(=O)c3ccccc3[nH]c12)Nc1ccc(S(=O)(=O)Nc2ncccn2)cc1 | > 100 µM (inactive) | 38.8 µM (inactive) | 15.6 µM (inactive) | 31.8 µM (inactive) | 28.4 µM (inactive) | 49.5 µM (inactive) | > 100 µM (inactive) | 37.5 µM (inactive) | > 100 µM (inactive) | 59.2 µM (inactive) | 35.8 µM (inactive) | 51.4 µM (inactive) | 43.3 µM (inactive) | 82 µM (inactive) | 59.6 µM (inactive) | 66.1 µM (inactive) | – | – | –
3 | O=C(OCN1C(=O)C2C3C=CC(C2C1=O)C1C2C(=O)N(COC(=O)C4CCCN4)C(=O)C2C31)C1CCCN1 (configuration not stated) | 34.2 µM (inactive) | > 100 µM (inactive) | > 100 µM (inactive) | 67 µM (inactive) | 32.3 µM (inactive) | > 100 µM (inactive) | > 100 µM (inactive) | > 100 µM (inactive) | 22.6 µM (inactive) | > 58.3 µM (inactive) | 25.5 µM (inactive) | 24.8 µM (inactive) | > 76.6 µM (inactive) | 62.5 µM (inactive) | > 72.3 µM (inactive) | > 79.4 µM (inactive) | – | – | –
4 | Cc1ccc(-c2cc(-c3ccco3)c(C#N)c(=O)n2C2OC(OC(=O)c3ccccc3)C(OC(=O)c3ccccc3)C2OC(=O)c2ccccc2)cc1 (configuration not stated) | > 100 µM (inactive) | > 100 µM (inactive) | 24.7 µM (inactive) | > 100 µM (inactive) | > 100 µM (inactive) | > 100 µM (inactive) | – | – | > 100 µM (inactive) | – | > 100 µM (inactive) | > 100 µM (inactive) | 24.9 µM (inactive) | – | > 100 µM (inactive) | – | – | – | –
5 | CC1(Br)C(=O)NC(=O)N(C2CC(N=[N+]=[N-])C(CO)O2)C1N=[N+]=[N-] (configuration not stated) | > 100 µM (inactive) | > 100 µM (inactive) | > 100 µM (inactive) | > 100 µM (inactive) | > 100 µM (inactive) | 97.9 µM (inactive) | – | > 100 µM (inactive) | > 100 µM (inactive) | > 100 µM (inactive) | > 100 µM (inactive) | 92.5 µM (inactive) | 91.8 µM (inactive) | > 100 µM (inactive) | > 100 µM (inactive) | > 100 µM (inactive) | – | – | –
6 | CC(=O)/C(=C\c1cccc([N+](=O)[O-])c1)C(=O)Nc1ccccc1C | > 100 µM (inactive) | 75.5 µM (inactive) | > 100 µM (inactive) | 95.1 µM (inactive) | 39.5 µM (inactive) | > 100 µM (inactive) | > 100 µM (inactive) | > 100 µM (inactive) | > 100 µM (inactive) | 56.4 µM (inactive) | > 10 µM (inactive) | 42.8 µM (inactive) | > 100 µM (inactive) | > 100 µM (inactive) | > 100 µM (inactive) | > 100 µM (inactive) | – | – | –
7 | O=C1OCC(C(=O)c2cccc(O)c2)C1=O (configuration not stated) | > 100 µM (inactive) | > 100 µM (inactive) | > 100 µM (inactive) | > 100 µM (inactive) | – | > 100 µM (inactive) | > 100 µM (inactive) | > 100 µM (inactive) | > 100 µM (inactive) | > 100 µM (inactive) | > 100 µM (inactive) | > 100 µM (inactive) | > 100 µM (inactive) | > 100 µM (inactive) | > 100 µM (inactive) | > 100 µM (inactive) | – | – | –
8 | O=C1CCC[C@]2(CCCC(=O)N2)C1 | > 100 µM (inactive) | > 100 µM (inactive) | > 100 µM (inactive) | > 100 µM (inactive) | > 100 µM (inactive) | > 100 µM (inactive) | > 100 µM (inactive) | > 100 µM (inactive) | > 100 µM (inactive) | > 100 µM (inactive) | > 100 µM (inactive) | > 100 µM (inactive) | > 100 µM (inactive) | > 100 µM (inactive) | > 100 µM (inactive) | > 100 µM (inactive) | – | – | –
9 | COC1=CC(=O)C(O)=C(CC2(C)C(C)CCC3(C)C2CCCC3(C)C)C1=O (configuration not stated) | 5.53 µM (inactive) | 3.6 µM (inactive) | 2.38 µM (inactive) | 10.3 µM (inactive) | 2.4 µM (inactive) | 4.03 µM (inactive) | 2.77 µM (inactive) | 2.84 µM (inactive) | 1.88 µM (inactive) | 4.18 µM (inactive) | 4.57 µM (inactive) | 2.96 µM (inactive) | 2.31 µM (inactive) | 3.76 µM (inactive) | 3.7 µM (inactive) | 3.84 µM (inactive) | – | – | –
10 | C=CCC(C(=O)OC)C1(C(=O)OC)c2[nH]c3ccccc3c2CCN1Cc1ccccc1 (configuration not stated) | > 100 µM (inactive) | > 100 µM (inactive) | 23.4 µM (inactive) | > 100 µM (inactive) | > 100 µM (inactive) | 51.8 µM (inactive) | – | > 100 µM (inactive) | – | 20.2 µM (inactive) | 83.6 µM (inactive) | > 100 µM (inactive) | 33 µM (inactive) | 85.5 µM (inactive) | > 100 µM (inactive) | – | – | – | –
11 | CC1=C(N2CC2)C(=O)c2nc3n(c2C1=O)CCC3O (configuration not stated) | 1.18 µM (inactive) | 0.151 µM (active) | 2.23 µM (inactive) | 0.973 µM (active) | 0.912 µM (active) | 0.176 µM (active) | 0.697 µM (active) | 0.104 µM (active) | 0.092 µM (active) | 0.0662 µM (active) | 0.201 µM (active) | 0.472 µM (active) | 0.187 µM (active) | 0.0216 µM (active) | 0.508 µM (active) | 0.226 µM (active) | 11.1 nM (active) | 23.9 nM (active) | 395 nM (active)
12 | CC1(C)C=N[N+]2(C)C3C=CC(CC3)C12 (configuration not stated) | > 100 µM (inactive) | > 100 µM (inactive) | > 100 µM (inactive) | > 100 µM (inactive) | > 100 µM (inactive) | > 100 µM (inactive) | > 100 µM (inactive) | > 100 µM (inactive) | > 100 µM (inactive) | – | > 100 µM (inactive) | > 100 µM (inactive) | > 100 µM (inactive) | > 100 µM (inactive) | > 100 µM (inactive) | > 100 µM (inactive) | – | – | –
13 | CSc1nc(NC2OC(COC(C)=O)C(OC(C)=O)C(OC(C)=O)C2OC(C)=O)c(/N=C/C=N/c2c(NC3OC(COC(C)=O)C(OC(C)=O)C(OC(C)=O)C3OC(C)=O)nc(SC)[nH]c2=O)c(=O)[nH]1 (configuration not stated) | > 100 µM (inactive) | > 100 µM (inactive) | > 100 µM (inactive) | > 100 µM (inactive) | – | > 100 µM (inactive) | – | > 100 µM (inactive) | > 100 µM (inactive) | > 100 µM (inactive) | > 100 µM (inactive) | > 100 µM (inactive) | > 100 µM (inactive) | > 100 µM (inactive) | > 100 µM (inactive) | > 100 µM (inactive) | – | – | –
14 | O=C(O)CNc1cc(-c2ccccc2)nc(NCC(=O)O)n1 | > 100 µM (inactive) | > 100 µM (inactive) | > 100 µM (inactive) | > 100 µM (inactive) | > 100 µM (inactive) | > 100 µM (inactive) | > 100 µM (inactive) | > 100 µM (inactive) | > 100 µM (inactive) | > 100 µM (inactive) | > 100 µM (inactive) | > 100 µM (inactive) | – | > 100 µM (inactive) | > 100 µM (inactive) | > 100 µM (inactive) | – | – | –
15 | CNCC(=O)Nc1ccc2c(c1)C(=O)c1ccc(NC(=O)CNC)cc1C2=O | 9.64 µM (inactive) | 4.72 µM (inactive) | 1.78 µM (inactive) | 4.42 µM (inactive) | 2.52 µM (inactive) | 3.27 µM (inactive) | 7.57 µM (inactive) | 13.4 µM (inactive) | 3.77 µM (inactive) | 1.91 µM (inactive) | 2.69 µM (inactive) | – | 7.31 µM (inactive) | 4.68 µM (inactive) | 3.1 µM (inactive) | 4.36 µM (inactive) | – | – | –
16 | C#Cc1cccc(NC(=O)/C=C\C(=O)O)c1 | > 100 µM (inactive) | – | > 100 µM (inactive) | > 100 µM (inactive) | > 100 µM (inactive) | > 100 µM (inactive) | > 100 µM (inactive) | > 100 µM (inactive) | > 100 µM (inactive) | > 100 µM (inactive) | > 100 µM (inactive) | > 100 µM (inactive) | – | > 100 µM (inactive) | > 100 µM (inactive) | > 100 µM (inactive) | – | – | –
17 | O=C1CCC(c2ccccc2)C(O)(C(=O)O)C1 (configuration not stated) | > 100 µM (inactive) | > 100 µM (inactive) | > 100 µM (inactive) | > 100 µM (inactive) | > 100 µM (inactive) | > 100 µM (inactive) | > 100 µM (inactive) | > 100 µM (inactive) | > 100 µM (inactive) | > 100 µM (inactive) | > 100 µM (inactive) | > 100 µM (inactive) | – | > 100 µM (inactive) | > 100 µM (inactive) | > 100 µM (inactive) | – | – | –
